# Columns and labels:
# [1] = tested on: Pseudomonas aeruginosa; test: Antibacterial activity against Pseudomonas aeruginosa ATCC 27853 after 24 hrs by NCCLS micro broth dilution method; format: functional; conditions: ATCC 27853, 24 h
# [2] = tested on: Salmonella typhi; test: Antibacterial activity against Salmonella typhi after 24 hrs by NCCLS micro broth dilution method; format: functional, Salmonella enterica subsp. enterica serovar Typhi; conditions: Salmonella enterica
# [3] = tested on: Escherichia coli; test: Antibacterial activity against Escherichia coli DH52 after 24 hrs by NCCLS micro broth dilution method; format: functional; conditions: DH52, 24 h
# [4] = tested on: MDA-MB-231; test: Cytotoxicity against human MDA-MB-231 cells after 24 hrs by MTT assay; format: cell-based; conditions: MDA-MB-231, 24 h
# [5] = tested on: Bacillus; test: Antibacterial activity against Bacillus proteus ATCC 13315 after 24 hrs by NCCLS micro broth dilution method; format: functional; conditions: ATCC 13315, 24 h
# [6] = tested on: Staphylococcus aureus; test: Antibacterial activity against Staphylococcus aureus ATCC 25923 after 24 hrs by NCCLS micro broth dilution method; format: functional; conditions: ATCC 25923, 24 h
# [7] = tested on: Staphylococcus aureus; test: Antibacterial activity against methicillin-resistant Staphylococcus aureus N315 after 24 hrs by NCCLS micro broth dilution method; format: functional; conditions: N315, 24 h
# [8] = tested on: Saccharomyces cerevisiae; test: Antifungal activity against Saccharomyces cerevisiae after 24 hrs by NCCLS micro broth dilution method; format: functional
# [9] = tested on: Candida albicans; test: Antifungal activity against Candida albicans ATCC 76615 after 24 hrs by NCCLS micro broth dilution method; format: functional; conditions: ATCC 76615, 24 h
# [10] = tested on: Cyberlindnera jadinii; test: Antifungal activity against Candida utilis after 24 hrs by NCCLS micro broth dilution method; format: functional; conditions: Williopsis jadinii
# [11] = tested on: Aspergillus flavus; test: Antifungal activity against Aspergillus flavus after 24 hrs by NCCLS micro broth dilution method; format: functional
# [12] = tested on: Shigella dysenteriae; test: Antibacterial activity against Shigella dysenteriae after 24 hrs by NCCLS micro broth dilution method; format: functional
# [13] = tested on: Pichia norvegensis; test: Antifungal activity against Candida mycoderma after 24 hrs by NCCLS micro broth dilution method; format: functional
# [14] = tested on: Bacillus subtilis; test: Antibacterial activity against Bacillus subtilis ATCC 21216 after 24 hrs by NCCLS micro broth dilution method; format: functional; conditions: ATCC 21216, 24 h
# [15] = tested on: Escherichia coli; test: Antibacterial activity against Escherichia coli JM109 after 24 hrs by NCCLS micro broth dilution method; format: functional; conditions: JM109, 24 h
# [16] = tested on: Micrococcus luteus; test: Antibacterial activity against Micrococcus luteus ATCC 4698 after 24 hrs by micro broth dilution method; format: functional; conditions: ATCC 4698, 24 h
# [17] = molecular target: T1, Albumin (Homo sapiens, UniProt P02768); test: Binding affinity to HSA assessed as change in entropy at 286 K by Van't hoff plot analysis; format: ADME; conditions: isolated protein
# T1 sequence (P02768 whole entry): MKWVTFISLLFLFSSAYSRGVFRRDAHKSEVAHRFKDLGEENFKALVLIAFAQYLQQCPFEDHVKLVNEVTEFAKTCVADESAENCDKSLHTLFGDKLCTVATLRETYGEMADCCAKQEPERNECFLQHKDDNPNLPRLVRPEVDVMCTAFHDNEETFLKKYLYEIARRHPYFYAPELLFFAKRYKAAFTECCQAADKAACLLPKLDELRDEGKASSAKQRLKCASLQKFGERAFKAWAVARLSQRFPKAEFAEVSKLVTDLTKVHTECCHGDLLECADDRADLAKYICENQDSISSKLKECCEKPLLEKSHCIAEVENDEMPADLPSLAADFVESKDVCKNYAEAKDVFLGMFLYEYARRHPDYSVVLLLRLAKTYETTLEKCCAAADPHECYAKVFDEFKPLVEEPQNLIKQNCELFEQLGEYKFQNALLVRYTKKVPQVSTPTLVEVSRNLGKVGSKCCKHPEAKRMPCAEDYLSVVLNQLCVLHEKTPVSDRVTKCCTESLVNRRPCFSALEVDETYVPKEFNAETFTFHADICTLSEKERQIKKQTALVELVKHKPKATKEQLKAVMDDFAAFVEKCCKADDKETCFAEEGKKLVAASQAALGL
# [18] = tested on: Calf thymus DNA; test: Inhibition of neutral red binding to calf thymus DNA by UV-Visible absorption spectroscopy; format: nucleic-acid assay; conditions: Bos taurus
# [19] = molecular target: T1, Albumin; test: Binding affinity to HSA assessed as Stern-Volmer quenching constant at pH 7.3 at 286 K by fluorescence assay; format: ADME; conditions: isolated protein
# [20] = molecular target: T1, Albumin; test: Binding affinity to HSA assessed as change in free energy at 310 K by Van't hoff plot analysis; format: ADME; conditions: isolated protein
# [21] = molecular target: T1, Albumin; test: Binding affinity to HSA assessed as biomolecular quenching rate constant at pH 7.3 at 310 K by fluorescence assay; format: ADME; conditions: isolated protein
# [22] = molecular target: T1, Albumin; test: Binding affinity to HSA assessed as Stern-Volmer quenching constant at pH 7.3 at 310 K by fluorescence assay; format: ADME; conditions: isolated protein
# [23] = molecular target: T1, Albumin; test: Binding affinity to HSA assessed as Stern-Volmer quenching constant at pH 7.3 at 303 K by fluorescence assay; format: ADME; conditions: isolated protein
# [24] = molecular target: T1, Albumin; test: Binding affinity to HSA assessed as change in free energy at 286 K by Van't hoff plot analysis; format: ADME; conditions: isolated protein
# [25] = molecular target: T1, Albumin; test: Binding affinity to HSA assessed as change in enthalpy at 286 K by Van't hoff plot analysis; format: ADME; conditions: isolated protein
# [26] = molecular target: T1, Albumin; test: Binding affinity to HSA assessed as biomolecular quenching rate constant at pH 7.3 at 286 K by fluorescence assay; format: ADME; conditions: isolated protein
# [27] = molecular target: T1, Albumin; test: Binding affinity to HSA assessed as biomolecular quenching rate constant at pH 7.3 at 303 K by fluorescence assay; format: ADME; conditions: isolated protein
# [28] = molecular target: T1, Albumin; test: Binding affinity to HSA assessed as change in free energy at 303 K by Van't hoff plot analysis; format: ADME; conditions: isolated protein
SMILES,MIC [1] [µg/mL],MIC [2] [µg/mL],MIC [3] [µg/mL],MIC [5] [µg/mL],MIC [6] [µg/mL],MIC [7] [µg/mL],MIC [8] [µg/mL],MIC [9] [µg/mL],MIC [10] [µg/mL],MIC [11] [µg/mL],MIC [12] [µg/mL],MIC [13] [µg/mL],MIC [14] [µg/mL],MIC [15] [µg/mL],MIC [16] [µg/mL],further results
CCOc1ccc2c(c1)sc1nc(-c3ccccc3)c(COCc3cn(Cc4cccc(F)c4)nn3)n12,64,32,16,64,128,16,32,8,16,64,128,16,128,128,128,IC50 [4]: < 100 µg/mL
CCOc1ccc2c(c1)sc1nc(-c3ccccc3)c(COCc3cn(Cc4ccc(Cl)c(Cl)c4)nn3)n12,4,8,32,8,16,16,16,8,2,64,16,4,4,1,2,deltaS [17]: 60.5 J/mol.K; inhibition [18]: Dose-dependent effect; KSV [19]: 4.04 ×10⁴ L/mol; deltaG [20]: -6.0194 kcal/mol; Kq [21]: 5.34 ×10¹² L/mol/s; KSV [22]: 3.42 ×10⁴ L/mol; KSV [23]: 3.54 ×10⁴ L/mol; deltaG [24]: -5.9113 kcal/mol; deltaH [25]: -1.54 kcal/mol; Kq [26]: 6.36 ×10¹² L/mol/s; Kq [27]: 5.53 ×10¹² L/mol/s; deltaG [28]: -5.9183 kcal/mol

# Source: ChEMBL document CHEMBL4196079, “Molecular interaction of novel benzothiazolyl triazolium analogues with calf thymus DNA and HSA-their biological investigation as potent antimicrobial agents” (Eur J Med Chem, 2018)
